Test results as given in paper PMC10630888, “Nuclear ERK1/2 signaling potentiation enhances neuroprotection and cognition via Importinα1/KPNA2” (EMBO Molecular Medicine, 2023).

Experiments:
ERK1/2 in HEK293 cells = assay: ERK1/2 immunofluorescence (nuclear translocation) in HEK293 cells; format: cell-based; conditions: HEK293, siRNA 200 nM 24 h, then RB5 50 μM 15 min
Experimental: For Western blot and immunofluorescence analysis, 0.6 × 10^6 HEK293 cells were seeded in 6‐well plates in the presence of DMEM High Glucose GlutaMax (Thermo Fisher Scientific) containing 10% Foetal Bovine Serum (FBS, Thermo Fisher Scientific) and 100 U/ml penicillin/streptomycin (Thermo Fisher Scientific). For Western blot analysis to assess ERK1/2 and phospho‐ERK1/2 levels, cells were serum starved for 24 h and incubated with RB5 50 μM or FBS 20% for 15 min at 37°C. To assess JNK and phospho‐JNK levels, cells were incubated with RB5 50 μM or anisomycin 5 μM for 30 min at 37°C. For immunofluorescence analysis, cells were serum‐starved for 24 h and incubated with 50 μM RB5 or 20% FBS for 15 min at 37°C.
After rinsing in PBS, cells were fixed in 4% PFA and permeabilized with increasing concentrations of methanol (33, 50, 75, and 95% in PBS, 2 min each at room temperature), followed by 100% methanol for 10 min at −20°C. […] The mean fluorescence intensity in the nucleus was calculated automatically by Fiji‐ImageJ software in 8–10 fields per slide. […]

[1] = target: T1, ERK1/ERK2-KPNA5 interaction (Homo sapiens, UniProt O15131); assay: Proximity ligation assay, ERK1 or ERK2 with KPNA5 in HEK293 cells; format: binding; conditions: HEK293 cells pretreated with RB5 50 μM for 1 h
T1 construct: host or cells: HEK293
Experimental: 1.5 × 10^6 HEK293 cells were seeded onto coverslips in 60 mm dishes. 24 h later, transfection was carried out using calcium phosphate method. 0.5 μg of pCMVTNT‐T7‐KPNA1 (Addgene, #26677), 0.5 μg of pCMVTNT‐T7‐KPNA2 (Addgene, #26678), 0.5 μg of pCMVTNT‐T7‐KPNA3 (Addgene, #26679), 0.5 μg of pCMVTNT‐T7‐KPNA4 (Addgene, #26680), 0.5 μg of pCMVTNT‐T7‐KPNA5 (Addgene, #26681), 1.5 μg of pcDNA3.1+/C‐(K)‐DYK‐KPNA6 (Genscript, #OHu29951D), 0.5 μg of pCMVTNT‐T7‐KPNA7 (Addgene, #26683), 5 μg of pcDNA3.1 +/C‐(K)‐DYK‐IPO7 (Genscript, #OHu11630), 0.5 μg pCMV5‐3HA‐RanBP5 (MRC PPU, University of Dundee, #DU7262), 0.5 μg pCMV5‐3HA‐ KPNB1 (MRC PPU, University of Dundee, #DU5332) were mixed with one of the following plasmids: 0.01 μg of 277.pCCLsin.PPT.hPGK.GFP.PRE, 0.25 μg of 277.pCCLsin.PPT.hPGK.ERK1‐GFP.PRE or 0.25 μg of 277.pCCLsin.PPT.hPGK.ERK2‐GFP.PRE. After approximately 16 h, cell culture medium was replaced with fresh medium. On the following day, cells were washed three times in PBS and fixed in 4% PFA for 15 min. […]
The proximity ligation assay was carried out following the manufacturer's instructions. […] The number of GFP‐positive cells, DAPI‐stained cells, and red dots was counted manually using Fiji‐ImageJ software.

NOR memory = assay: Novel object recognition test (NOR); format: in vivo, mouse; conditions: mice, single systemic administration, 20 mg/kg i.p.
Experimental: NOR was performed as previously described (d'Isa et al, [2014]). Briefly, the test was performed in an open square box placed in a quiet room with dim light. The objects used were parallelepipeds in metal and glass vials filled with water. The protocol required 3 days and it was performed as follows.
Day 1: mice were individually placed in the empty arena for 5 min to familiarize with it and to measure their anxiety (thigmotaxis trial). The percentage of thigmotaxis is calculated as the time spent in the peripheral zone out of the total time spent in the arena (300 s.). Animals showing a thigmotaxis > 90% are discarded from the sample because considered biased for anxiety. Day 2: mice were placed into the arena for 10 min, where they were allowed to explore two identical objects (training trial). The amount of time spent by mice exploring each object was scored. […] Times of exploration for the familiar object and for the novel object were recorded. The discrimination index (D.I.), defined as the difference between the exploration time for the novel object and the one for the familiar object, divided by total exploration time, was calculated. The sessions were recorded with the video tracking software SMART (Panlab, Barcelona, Spain). […]

T1 sequence (O15131 whole entry): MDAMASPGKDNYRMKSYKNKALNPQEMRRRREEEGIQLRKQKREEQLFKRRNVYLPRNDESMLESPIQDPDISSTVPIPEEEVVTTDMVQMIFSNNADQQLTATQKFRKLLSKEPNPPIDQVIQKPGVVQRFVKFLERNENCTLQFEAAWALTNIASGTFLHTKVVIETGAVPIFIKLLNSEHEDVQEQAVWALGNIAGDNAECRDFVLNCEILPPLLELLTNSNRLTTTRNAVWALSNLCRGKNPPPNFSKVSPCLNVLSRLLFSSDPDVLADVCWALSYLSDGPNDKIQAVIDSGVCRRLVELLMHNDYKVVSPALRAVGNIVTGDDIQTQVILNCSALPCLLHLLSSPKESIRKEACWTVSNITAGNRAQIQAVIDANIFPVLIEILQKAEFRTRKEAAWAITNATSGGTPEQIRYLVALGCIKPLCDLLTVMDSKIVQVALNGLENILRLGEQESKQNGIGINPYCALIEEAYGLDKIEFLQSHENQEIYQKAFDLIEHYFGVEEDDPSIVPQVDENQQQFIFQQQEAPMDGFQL

GRKKRRQRRRPPQGGGGGEPRRTEGVGPGVPGEVEMVKGQPFDV [RB5, six D-amino acids, acetylated N-terminus]
ERK1/2 nuclear translocation after KPNA2 downregulation (ERK1/2 in HEK293 cells): did not further enhance ERK1/2 nuclear translocation
ERK1 or ERK2 binding to KPNA5 (PLA) [1]: unaffected
Persistence of NOR memory (NOR memory): over 120 h
